Here are results for ten compounds from patent US5744121A (priority 1996, dated 1998).

Data set [1] has as its target T1, 5-HT1A receptor (rat hippocampal homogenates) (Rattus norvegicus, UniProt P19327).
T1 construct: in rat hippocampal membrane preparations; from tissue; host or cells: rat hippocampus (membrane preparations / tissue homogenates)
T1 sequence (P19327 1-422): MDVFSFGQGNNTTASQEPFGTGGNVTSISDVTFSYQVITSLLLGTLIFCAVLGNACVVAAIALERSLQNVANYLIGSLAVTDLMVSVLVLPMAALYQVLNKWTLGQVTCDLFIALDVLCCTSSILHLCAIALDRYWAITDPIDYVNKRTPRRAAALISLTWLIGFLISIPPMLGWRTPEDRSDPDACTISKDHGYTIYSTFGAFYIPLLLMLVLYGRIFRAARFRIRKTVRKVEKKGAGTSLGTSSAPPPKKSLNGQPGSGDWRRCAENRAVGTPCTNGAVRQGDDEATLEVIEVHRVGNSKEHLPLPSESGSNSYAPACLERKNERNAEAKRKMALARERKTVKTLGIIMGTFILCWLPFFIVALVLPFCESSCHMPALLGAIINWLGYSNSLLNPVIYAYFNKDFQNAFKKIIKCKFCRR
The data set is described as follows: Inhibition of [^125 I]-p-MPP binding to rat hippocampal homogenates.

The test system of data set [2] is 5-HT1A receptor. The data set is described as follows: Blocking studies: regional brain uptake ratios in rats. Type of data set: in vivo. The conditions noted are these: pretreated rats, 30 min post iv injection of tracer. Here is the method: In order to further characterize the in vivo brain uptake of 1a in rats, blocking studies were carried out to determine changes of the ratios of regional brain uptake. […] Ratios for each region were calculated based on the % dose/gram of each region divided by the same in CB. […] (HP: hippocampus; CB: cerebellum; HY: hypothalamus; CX: cortex; ST: striatum).

Data set [3] concerns the target T2, 5-HT1A receptor (rat hippocampus tissue homogenates) (Rattus norvegicus, UniProt P19327).
T2 construct: in rat hippocampal membrane preparations; from tissue; host or cells: rat hippocampus (membrane preparations / tissue homogenates)
T2 sequence (P19327 1-422): T1 sequence (P19327 1-422)
The data set is described as follows: Saturation binding of [^125 I]p-MPPI to rat hippocampus tissue homogenates.

A short description of data set [4]: Biodistribution in rats after iv injection. Type of data set: in vivo, Male Sprague-Dawley rats. The conditions noted are these: average of 3 rats ± SD. Here is the method: Male Sprague-Dawley rats (225-300 g), allowed free access to food and water, were used for an in vivo biodistribution study. While the rats were under ether anesthesia, 0.2 mL of a saline solution containing [^123 I]1a and 1b (8-10 μCi) was injected directly into the femoral vein, and rats were sacrificed at various time points postinjection by cardiac excision under ether anesthesia. The organs of interest were removed and weighed and the radioactivity was counted with a Packard […] automatic counter (Model 5000). The percentage dose per organ was calculated by a comparison of the tissue counts to suitably diluted aliquots of the injected material.

The target in data set [5] is T1, 5-HT1A receptor (rat hippocampal homogenates). The data set is described as follows: Inhibition of [^125 I]-8-OH-PIPAT binding to rat hippocampal homogenates. The conditions noted are these: ligand [^125 I]-8-OH-PIPAT. The source says:
The 5-HT1A binding affinity of p-, m-, o- MPPI, p-fluoro- and p-nitro-MPP derivatives (1a-f) in rat hippocampal membrane preparations with [^123 ]

The nature of data set [6]: Regional brain distribution in rats after iv injection. The conditions noted are these: rat; for tissue uptake at 0.05 h: 3 min; for tissue uptake at 2 h: 120 min. The class given is in vivo, Male Sprague-Dawley rats.
Protocol: While the rats were under ether anesthesia, 0.2 mL of a saline solution containing [^123 I]1a and 1b (8-10 μCi) was injected directly into the femoral vein, and rats were sacrificed at various time points postinjection by cardiac excision under ether anesthesia. The organs of interest were removed and weighed and the radioactivity was counted with a Packard garnma automatic counter (Model 5000). The percentage dose per organ was calculated by a comparison of the tissue counts to suitably diluted aliquots of the injected material. Total activities of blood and muscle were calculated under the assumption that they were 7% and 40% of the total body weight, respectively.
By dissecting, weighing and counting samples from different brain regions (cortex, striatum, hippocampus, hypothalamus and cerebellum), the percentage dose/gram of the sample was calculated by comparing the sample counts with the count of the diluted initial dose.
Data set [7] in a line: Stability of the radiolabelled product on storage. The conditions noted are these: -20° C., at least four weeks, HPLC; 40320 min. The class given is physicochemical.
The subject of data set [8] is 5-HT1A receptor (rat hippocampal membranes). The conditions noted are these: cited from earlier work.
The mark [9] stands for this setting: ligand [^125 I]-p-MPP, rat hippocampal homogenates, read-out: Ki.
[10] abbreviates: cerebellum, iv, rats (Table IV), read-out: Regional distribution, cerebellum.
Where [11] appears, read: cortex, iv, rats (Table IV), read-out: Regional distribution, cortex.
The mark [12] stands for this setting: hippocampus, iv, rats (Table IV), read-out: Regional distribution, hippocampus.
The mark [13] stands for this setting: hypothalamus, iv, rats (Table IV), read-out: Regional distribution, hypothalamus.
[14] abbreviates: striatum, iv, rats (Table IV), read-out: Regional distribution, striatum.

Like-named read-outs stand apart in the source and are kept apart here. Where only a bound is given, the exact number is not on record here.

Broadly, the Ki is the equilibrium dissociation constant of an inhibitor or competing ligand from its target. As to `COc1cccc(OC)c1OCCNCC1COc2ccccc2O1` (stereo not shown) [WB 4101], the inhibition constant (Ki) in data set [1] (setting [9]) was found to be 5 ± 0.5 nM.
Consider `CCCN(CCC)C1CCc2cccc(O)c2C1` (racemic) [(± 8-OH-DPAT), 8-hydroxy-2-(N,N-di-n-propyl)aminotetralin, reference compound], for which the “specific uptake of [^123 I] or [^125 I]1a in the hippocampus after pretreatment” value in data set [2] was “mark decrease”.
As a reminder, the Kd is a measure of binding affinity in units of concentration. For `COc1ccccc1N1CCN(CCN(C(=O)c2ccc([125I])cc2)c2ccccn2)CC1` [[^125 I]-MPPI], the Bmax in data set [3] (37° C., 15 min, 50 mM Tris-HCl pH 7.4, 2 mM MgCl2, 10 μM 5-HT for nonspecific binding) is 264 fmol/mg of protein. Moreover, the Kd stood at 0.36 nM in data set [3] (37° C., 15 min, 50 mM Tris-HCl pH 7.4, 2 mM MgCl2, 10 μM 5-HT for nonspecific binding, read-out: Kd (FIG. 1)) and 0.3 nM in data set [3] (rat hippocampal homogenates, Kung, Unpublished data, read-out: Kd (Table I footnote)).
In data set [4] (2 min), `COc1ccccc1N1CCN(CCN(C(=O)c2cccc(I)c2)c2ccccn2)CC1` [Compound 1b, 4-(2'-methoxy)phenyl-1-[2"-(N-2"-pyridinyl)-m-iodobenzamido]ethyl piperazine] gave a Brain uptake of 0.76 % dose/organ. Besides, the inhibition constant (Ki) came to 1.7 ± 0.1 nM in data set [5] and 2.46 ± 0.14 nM in data set [1] (setting [9]). For the same compound, the tissue uptake at 1 h in data set [6] (hippocampus, 60 minutes after iv injection, ^123 I labeled, read-out: Uptake in hippocampal tissue) worked out at 0.013 %ID/g. Further, the purity on storage in data set [7] was > 95%.
With `O=C(CCCN1CCC2(CC1)C(=O)NCN2c1ccccc1)c1ccc(F)cc1` [spiperone], the Ki in data set [1] (setting [9]) was 12.2 ± 2.2 nM.
`COc1ccccc1N1CCN(CCN(C(=O)c2ccc(F)cc2)c2ccccn2)CC1` [Compound 1d] displayed a Ki in data set [5] of 3.3 ± 0.8 nM.
Regarding `O=C(c1ccc(F)cc1)C1CCN(CCn2c(=O)[nH]c3ccccc3c2=O)CC1` [hetanserin], the inhibition constant (Ki) in data set [1] came out at 1970 ± 98 nM.
For the compound `COc1ccccc1N1CCN(CCN(C(=O)c2ccc(I)cc2)c2ncccn2)CC1` [Compound 1g, 4(2'-methoxy)phenyl-1-[2'-(N-2"-pyrimidinyl)-p-iodobenzamido] ethy piperazine], in data set [5], the inhibition constant (Ki) was found to be 6.08 ± 0.8 nM.
In data set [4] (2 min), `COc1ccccc1N1CCN(CCN(C(=O)c2cccc([123I])c2)c2ccccn2)CC1` [[^123 I] 1b] came in with a Blood uptake of 5.06 ± 0.32 % dose/organ, a Brain uptake of 0.76 ± 0.05 % dose/organ, a Heart uptake of 0.77 ± 0.08 % dose/organ and a Kidney uptake of 3.67 ± 0.22 % dose/organ. For the same compound, in data set [4] (2 min), the Liver uptake came to 25.72 ± 3.29 % dose/organ, the Lung uptake was found to be 1.87 ± 0.08 % dose/organ, the Muscle uptake was 14.98 ± 1.16 % dose/organ and the Skin uptake worked out at 10.16 ± 3.32 % dose/organ. In data set [4] (2 min), this compound gave a Spleen uptake of 0.68 ± 0.12 % dose/organ and a Thyroid uptake of 0.07 ± 0.02 % dose/organ. In data set [4] (30 min), this compound gave a Blood uptake of 2.27 ± 0.24 % dose/organ, a Brain uptake of 0.07 ± 0.004 % dose/organ, a Heart uptake of 0.11 ± 0.008 % dose/organ and a Kidney uptake of 1.18 ± 0.11 % dose/organ. In data set [4] (30 min), this compound had a Liver uptake of 8.04 ± 0.63 % dose/organ, a Lung uptake of 0.31 ± 0.004 % dose/organ, a Muscle uptake of 10.13 ± 4.90 % dose/organ and a Skin uptake of 13.71 ± 0.52 % dose/organ. In data set [4] (30 min), this compound registered a Spleen uptake of 0.09 ± 0.01 % dose/organ and a Thyroid uptake of 0.06 ± 0.02 % dose/organ. Also, in data set [4] (60 min), the Blood uptake is 1.21 ± 0.08 % dose/organ, the Brain uptake came to 0.02 ± 0.006 % dose/organ, the Heart uptake is 0.05 ± 0.005 % dose/organ and the Kidney uptake was 0.54 ± 0.007 % dose/organ. Further, in data set [4] (60 min), the Liver uptake is 4.58 ± 0.30 % dose/organ, the Lung uptake was 0.13 ± 0.02 % dose/organ, the Muscle uptake is reported as 4.75 ± 1.76 % dose/organ and the Skin uptake is on record as 5.85 ± 1.99 % dose/organ. In data set [4] (60 min), this compound yielded a Spleen uptake of 0.04 ± 0.006 % dose/organ and a Thyroid uptake of 0.05 ± 0.02 % dose/organ. In data set [4] (120 min), the Blood uptake stood at 1.08 ± 0.13 % dose/organ, the Brain uptake was 0.016 ± 0.0005 % dose/organ, the Heart uptake is reported as 0.03 ± 0.003 % dose/organ and the Kidney uptake stood at 0.36 ± 0.008 % dose/organ. In data set [4] (120 min), this compound gave a Liver uptake of 4.13 ± 0.44 % dose/organ, a Lung uptake of 0.10 ± 0.004 % dose/organ, a Muscle uptake of 5.56 ± 3.54 % dose/organ and a Skin uptake of 3.66 ± 0.68 % dose/organ. In addition, in data set [4] (120 min), the Spleen uptake is reported as 0.029 ± 0.002 % dose/organ and the Thyroid uptake was 0.11 ± 0.07 % dose/organ. Further, in data set [6] (setting [10]), the tissue uptake at 2 min came out at 0.47 ± 0.01 %ID/g, the tissue uptake at 0.05 h was found to be 0.039 ± 0.003 %ID/g and the tissue uptake at 2 h is 0.008 ± 0.0004 %ID/g. Also, the tissue uptake at 1 h in data set [6] (cerebellum, 60 min, iv, rats (Table IV), read-out: Regional distribution, cerebellum) worked out at 0.014 ± 0.004 %ID/g. In addition, in data set [6] (setting [11]), the tissue uptake at 2 min is 0.5 ± 0.03 %ID/g, the tissue uptake at 0.05 h was 0.043 ± 0.002 %ID/g and the tissue uptake at 2 h turned out to be 0.008 ± 0.0008 %ID/g. Also, in data set [6] (cortex, 60 min, iv, rats (Table IV), read-out: Regional distribution, cortex), the tissue uptake at 1 h stood at 0.015 ± 0.005 %ID/g. Further, in data set [6] (setting [12]), the tissue uptake at 2 min was 0.54 ± 0.03 %ID/g, the tissue uptake at 0.05 h was 0.051 ± 0.005 %ID/g and the tissue uptake at 2 h came to 0.006 ± 0.001 %ID/g. Besides, the tissue uptake at 1 h in data set [6] (hippocampus, 60 min, iv, rats (Table IV), read-out: Regional distribution, hippocampus) was determined as 0.013 ± 0.004 %ID/g. Further, in data set [6] (setting [13]), the tissue uptake at 2 min turned out to be 0.5 ± 0.04 %ID/g, the tissue uptake at 0.05 h amounted to 0.042 ± 0.003 %ID/g and the tissue uptake at 2 h is 0.01 ± 0.002 %ID/g. Also, in data set [6] (hypothalamus, 60 min, iv, rats (Table IV), read-out: Regional distribution, hypothalamus), the tissue uptake at 1 h amounted to 0.015 ± 0.005 %ID/g. In data set [6] (setting [14]), the tissue uptake at 2 min was 0.51 ± 0.003 %ID/g, the tissue uptake at 0.05 h worked out at 0.042 ± 0.004 %ID/g and the tissue uptake at 2 h amounted to 0.006 ± 0.0008 %ID/g. Also, the tissue uptake at 1 h in data set [6] (striatum, 60 min, iv, rats (Table IV), read-out: Regional distribution, striatum) worked out at 0.012 ± 0.003 %ID/g.
A word on the IC50: it is the concentration needed to halve the response being measured. Turning to `COc1ccccc1N1CCN(C[C@@H](C(=O)NC(C)(C)C)c2ccccc2)CC1` [(5)-WAY 100135, N-tert-butyl-3-(4-(-2-methoxyphenyl)piperazin-1-yl)-2-phenylpropionamide], the selectivity entry in data set [8] (5-HT1A receptor) is “selective antagonist at both somatodendritic and postsynaptic receptor”. Also, the IC50 in data set [8] (rat hippocampal membranes) is 15 nM.
